Measurements: ChEMBL document CHEMBL1201862, “PubChem BioAssay data set” (2004)
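Tested at 5 concentrations; 48 h exposure; 96-well plates; endpoints linearly interpolated, else capped at highest concentration. At the GI50, growth is halved.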 The source made the active and inactive calls. No stated cut-off is given here; in the data, active = GI50 up to about 1.1 µM and inactive = higher.

Tests used:
Test in all cases: NCI tumour cell line growth inhibition, 48 h
[1] = test system: SNB-19
[2] = test system: M14
[3] = test system: UACC-62
[4] = test system: DU-145
[5] = test system: K562
[6] = test system: COLO 205
[7] = test system: U-251
[8] = test system: Malme-3M
[9] = test system: UO-31
[10] = test system: HOP-92
[11] = test system: MDA-N
[12] = test system: HCT-15
[13] = test system: HCC 2998
[14] = test system: A549
[15] = test system: A498
[16] = test system: NCI-H226
[17] = test system: SK-MEL-28
[18] = test system: TK-10
[19] = test system: Hs-578T
[20] = test system: CAKI-1
[21] = test system: SF-268
[22] = test system: BT-549
[23] = test system: MCF7
[24] = test system: HT-29
[25] = test system: T47D
[26] = test system: NCI-H23
[27] = test system: SK-MEL-5
[28] = test system: MOLT-4
[29] = test system: HL-60
[30] = test system: LOX IMVI
[31] = test system: RXF 393
[32] = test system: IGROV-1
[33] = test system: SR
[34] = test system: OVCAR-3
[35] = test system: MDA-MB-231
[36] = test system: HOP-62
[37] = test system: ACHN
[38] = test system: HCT-116
[39] = test system: CCRF-CEM
[40] = test system: MDA-MB-435
[41] = test system: SK-MEL-2
[42] = test system: SN12C
[43] = test system: PC-3
[44] = test system: OVCAR-5
[45] = test system: EKVX
[46] = test system: NCI-H522
[47] = test system: OVCAR-4
[48] = test system: 786-0
[49] = test system: SK-OV-3
[50] = test system: UACC-257
[51] = test system: RPMI-8226
[52] = test system: SF-539
[53] = test system: NCI-H460
[54] = test system: SF-295
[55] = test system: SW-620
[56] = test system: KM12
[57] = test system: OVCAR-8
[58] = test system: SNB-75

`CSC1=C(C#N)C(=O)N(c2ccc(Cl)cc2)C(=O)C1C#N` (stereo not drawn) was tested, and the GI50 [1] was > 100 µM (inactive), the GI50 [2] was 96.4 µM (inactive) and the GI50 [3] was > 100 µM (inactive). For the same compound, the GI50 [4] was > 100 µM (inactive), the GI50 [5] was 78.9 µM (inactive) and the GI50 [6] was > 100 µM (inactive). The GI50 [7] was > 100 µM (inactive), the GI50 [8] was > 100 µM (inactive) and the GI50 [9] was > 100 µM (inactive). The GI50 [10] was 28.9 µM (inactive), the GI50 [11] was > 100 µM (inactive) and the GI50 [12] was > 100 µM. The GI50 [13] was > 100 µM (inactive), the GI50 [14] was > 100 µM (inactive) and the GI50 [15] was 74.6 µM (inactive). For the same compound, the GI50 [16] was > 100 µM (inactive), the GI50 [17] was > 100 µM (inactive) and the GI50 [18] was > 100 µM (inactive). The GI50 [19] was 77.8 µM (inactive), the GI50 [20] was > 100 µM (inactive) and the GI50 [21] was > 100 µM (inactive). For the same compound, the GI50 [22] was > 100 µM (inactive), the GI50 [23] was > 100 µM (inactive) and the GI50 [24] was > 100 µM (inactive). The GI50 [25] was 74.8 µM (inactive), the GI50 [26] was > 100 µM (inactive) and the GI50 [27] was > 100 µM (inactive). The GI50 [28] was 97.5 µM (inactive), the GI50 [29] was > 100 µM (inactive) and the GI50 [30] was > 100 µM (inactive). The GI50 [31] was > 100 µM (inactive), the GI50 [32] was > 100 µM (inactive) and the GI50 [33] was 15.4 µM (inactive). For the same compound, the GI50 [34] was > 100 µM (inactive), the GI50 [35] was > 100 µM (inactive) and the GI50 [36] was > 100 µM (inactive). The GI50 [37] was > 100 µM (inactive), the GI50 [38] was > 100 µM (inactive) and the GI50 [39] was 44.9 µM (inactive). The GI50 [40] was > 100 µM (inactive), the GI50 [41] was > 100 µM (inactive) and the GI50 [42] was > 100 µM (inactive). The GI50 [43] was > 100 µM (inactive), the GI50 [44] was > 100 µM (inactive) and the GI50 [45] was > 100 µM (inactive). For the same compound, the GI50 [46] was > 100 µM (inactive), the GI50 [47] was > 100 µM (inactive) and the GI50 [48] was > 100 µM (inactive). The GI50 [49] was > 100 µM (inactive), the GI50 [50] was > 100 µM (inactive) and the GI50 [51] was 33.8 µM (inactive). The GI50 [52] was > 100 µM (inactive), the GI50 [53] was > 100 µM (inactive) and the GI50 [54] was 87.1 µM (inactive). For the same compound, the GI50 [55] was > 100 µM (inactive).

`CC1CCC2(NC1)OC1CC3C4CC=C5CC(OC6OC(CO)C(OC7OC(C)C(O)C(O)C7O)C(O)C6OC6OC(C)C(O)C(O)C6O)CCC5(C)C4CCC3(C)C1C2C` (stereo not drawn) was tested, and the GI50 [1] was 11.1 µM (inactive), the GI50 [2] was 2.39 µM (inactive) and the GI50 [3] was 3.02 µM (inactive). The GI50 [4] was 4 µM (inactive), the GI50 [5] was 4.11 µM (inactive) and the GI50 [6] was 8.63 µM (inactive). For the same compound, the GI50 [7] was 2.84 µM (inactive), the GI50 [8] was 2.46 µM (inactive) and the GI50 [9] was 7.45 µM (inactive). The GI50 [10] was 3.69 µM (inactive), the GI50 [11] was 2.37 µM (inactive) and the GI50 [12] was 6.67 µM. The GI50 [13] was 2.16 µM (inactive), the GI50 [14] was 3.15 µM (inactive) and the GI50 [15] was 5.74 µM (inactive). The GI50 [16] was 2.46 µM (inactive), the GI50 [17] was 1.91 µM (inactive) and the GI50 [18] was 5.31 µM (inactive). The GI50 [19] was 3.87 µM (inactive), the GI50 [20] was 4.36 µM (inactive) and the GI50 [21] was 2 µM (inactive). For the same compound, the GI50 [22] was 15.6 µM (inactive), the GI50 [23] was 2.32 µM (inactive) and the GI50 [24] was 5.69 µM (inactive). For the same compound, the GI50 [25] was 7.64 µM (inactive), the GI50 [26] was 12.2 µM (inactive) and the GI50 [27] was 5.58 µM (inactive). The GI50 [28] was 8.55 µM (inactive), the GI50 [29] was 4.41 µM (inactive) and the GI50 [56] was 3.46 µM (inactive). For the same compound, the GI50 [30] was 5.79 µM (inactive), the GI50 [31] was 4.05 µM (inactive) and the GI50 [32] was 5.82 µM (inactive). The GI50 [33] was 3.08 µM (inactive), the GI50 [57] was 2.88 µM (inactive) and the GI50 [34] was 1.96 µM (inactive). For the same compound, the GI50 [35] was 3.78 µM (inactive), the GI50 [36] was 4.09 µM (inactive) and the GI50 [37] was 3.91 µM (inactive). The GI50 [38] was 2.31 µM (inactive), the GI50 [39] was 15 µM (inactive) and the GI50 [40] was 2.04 µM (inactive). For the same compound, the GI50 [41] was 3.63 µM (inactive), the GI50 [42] was 2.24 µM (inactive) and the GI50 [43] was 2.09 µM (inactive). For the same compound, the GI50 [44] was 5.66 µM (inactive), the GI50 [58] was 2.5 µM (inactive) and the GI50 [45] was 2.5 µM (inactive). The GI50 [46] was 1.7 µM (inactive), the GI50 [47] was 2.54 µM (inactive) and the GI50 [48] was 1.99 µM (inactive). The GI50 [49] was 7.18 µM (inactive), the GI50 [50] was 2.64 µM (inactive) and the GI50 [51] was 12.8 µM (inactive). The GI50 [52] was 3.3 µM (inactive), the GI50 [53] was 3.55 µM (inactive) and the GI50 [54] was 2.08 µM (inactive). The GI50 [55] was 4.4 µM (inactive).
